Data set [1] relates to AcCh receptors. The note with it: background; cited from earlier work.
For data set [2] the following is noted: peripheral administration; background; cited from earlier work.
For data set [3] the following is noted: background; cited from earlier work.
The conditions of data set [4]: peripheral administration; background; cited from earlier work. This is another data set of the same source.
The target in data set [5] is central cholinergic receptors. The data set can be described thus: 3H-oxotremorine-M (Oxo-M) displacement from rat brain homogenates. Type of data set: binding. The note with it: displacement of 3H-oxotremorine-M, pH 7.4, 40 min, 30° C. As to the method: (§1) Affinity to central cholinergic receptors in vitro was measured as the ability of the compounds to displace ^3 H-oxotremorine-M (Oxo-M) from rat brain homogenates, while affinity to central muscarinic M-1-receptors in vitro was measured as the ability of the compounds to displace ^3 H-pirenzepin (Pz) from rat brain homogenates.
^3 H-oxotremorine M binding
was performed essentially as described by Birdsdall et al., 1980. Briefly, rat brains were homogenized in 100 vol (w/v) 10 mM Na,K-phosphate buffer (pH 7.4) and aliquots incubated with ^3 H-oxotremorine M (84.9 Ci/m-mol, NEN) alone or in the presence of test compound in a total volume of 1.5 ml for 40 min. at 30° C. The reaction was stopped by adding 5 ml cold buffer and filtered through Whatman GF/B filters soaked previously in 0.1% polyethylenimin (Sigma) for minimum 30 min. The filters were washed once with the same volume of buffer, transferred to scintillation vials and extracted in scintillation fluid (Pico-fluor 15, Packard) for at least two hours before counted in a liquid scintillation spectrometer (Beckman LS 1800). Non-specific binding was estimated at 10 μM atropine and all estimations made in triplicate. At least two displacement curves were made for each compound tested.
Birdsdall N. J. M., Hulme E. C., and Burgen A. S. V. (1980). "The Character of Muscarinic Receptors in Different Regions of the Rat Brain". Proc. Roy. […] London (Series B) 207, 1.
Background: Displacement assays read how much labelled ligand stays bound in the presence of the test substance.

The target of data set [6] is T1, central muscarinic M-1-receptors (Rattus norvegicus, UniProt P08482).
T1 sequence (P08482 1-460): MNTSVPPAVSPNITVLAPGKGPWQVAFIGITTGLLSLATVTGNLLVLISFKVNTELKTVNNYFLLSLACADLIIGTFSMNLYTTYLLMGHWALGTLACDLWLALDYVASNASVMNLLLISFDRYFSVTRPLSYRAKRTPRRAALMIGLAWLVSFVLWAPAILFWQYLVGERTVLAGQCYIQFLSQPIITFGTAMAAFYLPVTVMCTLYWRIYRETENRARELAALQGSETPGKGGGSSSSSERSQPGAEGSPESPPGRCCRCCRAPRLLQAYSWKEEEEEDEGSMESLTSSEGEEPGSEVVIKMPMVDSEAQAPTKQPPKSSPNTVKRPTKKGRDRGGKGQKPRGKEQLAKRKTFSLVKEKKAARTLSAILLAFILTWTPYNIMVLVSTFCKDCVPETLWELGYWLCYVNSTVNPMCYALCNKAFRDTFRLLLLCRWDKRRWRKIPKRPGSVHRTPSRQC
Put plainly: 3H-pirenzepine (Pz) displacement from rat brain homogenates. Type of data set: binding. The protocol: as §1
was performed essentially as described by Watson et al., 1983, the conditions being very much the same as for ^3 H-oxotremorine binding, except that aliquots were incubated with 1.0 nM ^3 H-pirenzepine for 60 min. at 25° C. and that the reaction was stopped by direct filtration followed by 3 washes with 4 ml buffer.
Watson, M., Yamamura, H. I., and Roeske, W. R. (1983). "A unique regulatory profile and regional distribution of ^3 H-pirenzepin binding in the rat provide evidence for distinct M1 and M2 muscarinic receptor subtypes". Life Sci. 32 (1983) 3001-3011.

The mark [7] stands for this setting: displacement of 1.0 nM 3H-pirenzepine, rat brain homogenates, 60 min, 25° C, read-out: Pz, IC50.

Where a name gives a salt, the structure may show the parent alone. Read-outs that look alike come from different tables or passages of the source.

In the case of `COC(=O)C1=CCCN(C)C1` [Arecoline, methyl 1-methyl-1,2,5,6-tetrahydropyridine-3-carboxylate], the AcCh agonist activity result in data set [1] is listed as “AcCh agonist”. Also, the central effects entry in data set [2] was “very weak and frequently negligible central effects”. In data set [3], the “hydrolysis of ester group in vivo” value was “very rapidly hydrolyzed in vivo”. Besides, the “penetration of blood-brain barrier” value in data set [4] is recorded as “capable of penetrating the BBB”.
The IC50 is the concentration that inhibits the measured activity by half. As to `CC1CC=C(c2nnn(C)n2)CN1C` (centres unmarked) [Compound 31, 2-Methyl-5-(1,6-dimethyl-1,2,5,6-tetrahydro-3-pyridyl)-2H-tetrazole], the IC50 in data set [5] came out at 310 nM; in data set [6] (setting [7]) it was 140 nM.
For the compound `Cn1nnc(C2=CCCNC2)n1` [Compound 8, 2-Methyl-5(1,2,5,6-tetrahydro-3-pyridyl)-2H-tetrazole, hydrobromide], the values for the IC50 in data set [5] and in data set [6] (setting [7]) were 6.3 nM and 2100 nM, respectively.
With `C#CCn1nnc(C2=CC(C)CNC2)n1` (centres unmarked) [Compound 50, 2-(2-Propynyl)-5-(5-methyl-1,2,5,6-tetrahydro-3-pyridyl)-2H-tetrazole hydrochloride], the figures for the half-maximal inhibitory concentration (IC50) in data set [5] and in data set [6] (setting [7]) were 62 nM and 68 nM, respectively.
In the same order, the values of `Cc1coc(C2=CCCN(C)C2)n1` [Compound 84, 4-Methyl-2-(1-methyl-1,2,5,6-tetrahydro-3-pyridyl)-oxazole, oxalate] are 28 nM and 58 nM.
On to `C#CCn1nnc(C2CCCNC2)n1` (centres unmarked) [Compound 26, 2-(2-Propynyl)-5-(3-piperidyl)2H-tetrazole, hydrochloride], for which the IC50 in data set [5] is 44 nM; in data set [6], 400 nM.
Regarding `CSc1n[nH]c(C2=CCCN(C)C2)n1` [Compound 67, 3-Methylthio-5-(1-methyl-1,2,5,6-tetrahydro-3-pyridyl)-1,2,4-triazole, fumarate], the half-maximal inhibitory concentration (IC50) in data set [5] is 1500 nM; in data set [6] (setting [7]), 2000 nM.
Consider `Cc1cc(C2=CCCNC2)on1` [Compound 54, 3-Methyl-5(1,2,5,6-tetrahydro-3-pyridyl)-isoxazole, maleate], for which the IC50 was found to be 230 nM in data set [5] and 4000 nM in data set [6] (setting [7]).
With `C#CCn1nnc(C2=CCC(C)NC2)n1` (centres unmarked) [Compound 36, 2-(2-Propynyl-5-(6-methyl-1,2,5,6-tetrahydro-3-pyridyl)-2H-tetrazole, hydrochloride], the half-maximal inhibitory concentration (IC50) is 390 nM in data set [5] and 250 nM in data set [6] (setting [7]).
